The source of these data is paper PMC5655053, “Pharmacological Basis of CD101 Efficacy: Exposure Shape Matters” (Antimicrobial Agents and Chemotherapy, 2017).

For data set [1], the system named is hepatocytes of Sprague-Dawdley rats. The following applies: supratherapeutic (comparable) doses, 2-week repeated-dose study; cited from earlier work. The text has this: The echinocandin CD101 is a novel antifungal agent with activity against Aspergillus and Candida species, including azole- and echinocandin-resistant isolates ([1], [2]). This compound is a structural analog of anidulafungin but differs in certain beneficial ways with regard to toxicological and pharmacokinetic properties.

For data set [2] the following is noted: cited from earlier work.
A short description of data set [3]: Single-dose i.p. pharmacokinetic study in mice, plasma, four-compartment model. In kind it is in vivo, ICR mice. The conditions noted are these: for maximum plasma concentration: female ICR mice, at first sampling (1 h), LC-MS/MS. The method, then: A four-compartment model best described the disposition of this agent in murine plasma. […] The coefficient of determination (r^2) for the model-predicted concentrations versus observed concentrations was 0.97. […] All model parameters were estimated with excellent precision, as indicated by a standard error of the mean (SEM) of less than 20% for 7 of 8 of the model parameters.
Healthy female ICR mice weighing 20 to 24 g were administered a single dose of CD101 via intraperitoneal (i.p.) injection. Doses of 1, 4, and 16 mg/kg of body weight were studied, utilizing 3 animals per dose level. Whole-blood samples (one sample per animal) were collected at 1, 3, 6, 12, 24, 48, 72, and 96 h postdose. Plasma was collected by centrifugation, and samples were stored at −20°C or below. Samples were analyzed using liquid chromatography with tandem mass spectrometry detection and an AB-SCIEX API 4000 mass spectrometry system. The method used in the analysis was qualified as fit for the purpose: calibration standards were matrix matched, and, for each analytical batch, triplicate calibration standards were included at the beginning of the batch, approximately in the middle, and at the end. Following analysis, quantitation is carried out by a calibration curve comprising analyte/internal standard area ratio versus concentration. Calibration standards ranged from 0.5 mg/liter (lower limit of quantitation [LLOQ]) to 100 mg/liter. Analytical batch acceptance followed the general guidance criterion that standards/quality control should be within ±20% for accuracy (percent nominal concentration) and ≤20% for precision (percent coefficient of variation). For analysis, plasma samples were quenched with acetonitrile (4:1 acetonitrile/plasma ratio) containing diclofenac as the internal standard. Animals were maintained in accordance with the criteria of the American Association for Assessment and Accreditation of Laboratory Animal Care (AAALAC). The pharmacokinetic study was approved by the Animal Research Committee of the William S. Middleton Memorial Veterans Affairs Hospital and the University of Wisconsin.
(§1) Data collected from the pharmacokinetic study described above were used to develop a pharmacokinetic model describing the disposition of CD101 in mice in S-ADAPT ([21]). The developed pharmacokinetic model, along with the unbound CD101 fraction, was used to simulate free-drug concentration-time profiles for each dosing regimen administered in the front-loaded dose studies. Free-drug AUC0–168 values were calculated through numeric integration of CD101 free-drug concentration-time profiles. Relationships between changes in log10 CFU at 168 h and free-drug AUC0–168/MIC ratios were explored.

The subject of data set [4] is Candida albicans R303. The data set can be described thus: Broth microdilution susceptibility testing (CLSI M27-A3). The format is cell-based. The following applies: C. albicans R303, CLSI M27-A3, RPMI 1640, 35°C, read at 24 h, ~50% growth inhibition, modal value of three occasions. The method, then:
CD101 was supplied by Cidara Therapeutics, Inc. (San Diego, CA). Stock solutions of CD101 were prepared in dimethyl sulfoxide (DMSO) for the susceptibility testing. The vehicle used for dosing in the in vivo studies was 10% DMSO–1% Tween 20–saline solution. The challenge isolate utilized in these studies was Candida albicans R303. Susceptibility testing was done in accordance with the Clinical and Laboratory Standards Institute (CLSI) M27-A3 methods, using RPMI 1640 medium, an initial inoculum of 0.5 × 10^3 to 2.5 × 10^3 CFU/ml, and incubation at 35°C ([20]). MIC plates were read following 24 h of incubation, and MIC values are reported as concentrations resulting in prominent (∼50%) growth inhibition. Susceptibility testing was performed on three separate occasions. Final results were expressed as modal values. Quality control was performed on each day of testing using CLSI-recommended reference strains (C. krusei ATCC 6258 and C. parapsilosis ATCC 22019).

Data set [5] concerns Candida albicans R303. The data set is described as follows: Front-loaded dose studies, neutropenic murine disseminated candidiasis model. In kind it is in vivo, ICR mice. The method, then:
Fungi in the no-treatment control group grew well and reached a density of greater than 1 × 10^6 CFU/g by 48 h. The magnitudes of net change in log10 CFU from the baseline at 168 h were similar regardless of the fractionation schedule within the CD101 0.7 mg/kg and 7 mg/kg dosing groups. […] In the 7 mg/kg dose group, the magnitude of net change was greater than 2 log10 CFU reduction from the baseline at 168 h, regardless of the fractionation schedule. Conversely, results within the CD101 2 mg/kg group differed across the fractionation schedules. […] However, when this dose was front-loaded (i.e., delivered entirely on day 1), there was a greater than 2 log10 CFU reduction from the baseline at 168 h.
(§2) A neutropenic, murine, disseminated candidiasis model was used for the evaluation of the effects of the CD101 dosing regimens on efficacy. Male or female ICR mice (n = 5 per regimen and observation time) weighing 22 ± 2 g were rendered neutropenic by treatments using the injection of cyclophosphamide 4 days prior to infection (day −4) and 1 day prior to infection (day −1) at 150 and 100 mg/kg i.p., respectively. Neutropenia was sustained for the duration of the study with cyclophosphamide doses (100 mg/kg i.p.) administered every 48 h on days 1, 3, 5, and 7 after infection. Each animal was inoculated, using a lateral tail vein injection, with 1 × 10^3 CFU of Candida albicans (isolate R303). CD101 (or vehicle) was administered 24 h postinfection via i.p. injection. Mice were euthanized with CO2 at 168 h (7 days) following the start of treatment. Mice in the control group were euthanized 0, 24, and 48 h after administration of vehicle. Paired kidneys were aseptically harvested and homogenized, and serial dilutions were plated for colony counts to determine the fungal burden (measured in CFU per gram). Kidney counts were not determined in animals that expired prior to the scheduled sacrifice time. The front-loaded dose studies was performed under animal biosafety level 2 conditions in an Association for Assessment and Accreditation of Laboratory Animal Care-accredited vivarium, at Eurofins Panlabs Taiwan, Ltd., with the oversight of veterinarians to ensure compliance with the Eurofins Panlabs Institutional Animal Care and Use Committee regulations and the humane treatment of laboratory animals.

Data set [6] is described as follows: Observation for overt toxicity in mice of the front-loaded dose studies. The conditions noted are these: any of the mice evaluated. In kind it is in vivo, ICR mice. The method, then: (§3) Simulated free-drug plasma concentration-time profiles of the three fractionated CD101 2 mg/kg dosing regimens are shown in Fig. 4.
as §2, with “The front-loaded dose studies was performed under animal biosafety level 2 conditions in an Association for Assessment and Accreditation of Laboratory Animal Care-accredited vivarium, at Eurofins Panlabs Taiwan, Ltd., with the oversight of veterinarians to ensure compliance with the Eurofins Panlabs Institutional Animal Care and Use Committee regulations and the humane treatment of laboratory animals.” left out

Data set [7] can be described thus: Simulated free-drug plasma concentration-time profiles of the fractionated regimens. Also noted: species or system mouse. The following applies: mice. The method, then: as §3, §1
Where [8] appears, read: four-compartment model, murine plasma, 1-16 mg/kg i.p.

Several values for one entry are separate records, joined by “and”; a condition that tells them apart may be missing. Identical values can stand only once. Like-named read-outs stand apart in the source and are kept apart here. Numbered stars: 1 amine (or outer) side, 2 acyl side, 3 side chain; on linkers, the order of the positions; unused ones are H or OH. Bridge positions count the residues as written; N and C are the ends. Square brackets hold non-standard residues; d marks the D form. Peptide text beside a SMILES is read from it. * marks the point of attachment. Orn(4R-OH,5R-OCH2CH2NMe3+) = C[N+](C)(C)CCO[C@@H](N[*:3])[C@H](O)C[C@H](N[*:1])C(=O)[*:2]; pTerphenylCO(4''-OnC5H11) = CCCCCOc1ccc(-c2ccc(-c3ccc(C(=O)*)cc3)cc2)cc1; hTyr(3S-OH,4S-OH) = N[C@H](C(=O)O)[C@H](O)[C@@H](O)c1ccc(O)cc1; Pro(3S-OH,4S-Me) = C[C@H]1CN[C@H](C(=O)O)[C@H]1O; Hyp = O=C(O)[C@@H]1C[C@@H](O)CN1

As for `CCCCCOc1ccc(-c2ccc(-c3ccc(C(=O)N[C@H]4C[C@@H](O)[C@@H](OCC[N+](C)(C)C)NC(=O)[C@@H]5[C@@H](O)[C@@H](C)CN5C(=O)[C@H]([C@@H](C)O)NC(=O)[C@H]([C@H](O)[C@@H](O)c5ccc(O)cc5)NC(=O)[C@@H]5C[C@@H](O)CN5C(=O)[C@H]([C@@H](C)O)NC4=O)cc3)cc2)cc1` [CD101] ({pTerphenylCO(4''-OnC5H11)}-[Orn(4R-OH,5R-OCH2CH2NMe3+)]T[Hyp][hTyr(3S-OH,4S-OH)]T[Pro(3S-OH,4S-Me)]; lactam 1-C), in data set [1], the hepatocyte findings result is “no changes were observed”. In data set [2] (humans, healthy volunteers), the terminal half-life was ~133 h. This compound also showed a maximum plasma concentration in data set [3] (1 mg/kg i.p. single dose) of 3.97 mg/L. In addition, in data set [3] (4 mg/kg i.p. single dose), the maximum plasma concentration turned out to be 13.6 mg/L. This compound registered a maximum plasma concentration in data set [3] (16 mg/kg i.p. single dose) of 52.0 mg/L. For the same compound, the “pharmacokinetics over the studied dose range” value in data set [3] (1 to 16 mg/kg i.p., mice) is “linear pharmacokinetics”. Moreover, in data set [3] (setting [8]), the “Q2 (distributional clearance), final estimate” value was 0.255 mL/min/kg; the “Q3 (distributional clearance), final estimate” value is 5.2 mL/min/kg; the “Q4 (distributional clearance), final estimate” value was 1.2 mL/min/kg; the “V1 (central compartment volume), final estimate” value was 0.201 L/kg. Further, in data set [3] (setting [8]), the “V2 (peripheral compartment volume), final estimate” value is 0.871 L/kg; the “V3 (peripheral compartment volume), final estimate” value was 0.0341 L/kg; the “V4 (peripheral compartment volume), final estimate” value was 0.165 L/kg. In addition, the CL/F in data set [3] (mouse, in vivo, ip, four-compartment model, murine plasma, 1-16 mg/kg i.p., read-out: CLt (total clearance), final estimate (converted)) is 0.173 mL/min/kg. In addition, the “modal MIC” value in data set [4] was found to be 0.125 µg/mL. The “log10 CFU reduction from the baseline at 168 h” value in data set [5] (total 2 mg/kg as single dose (2 mg/kg x 1), kidney burden, neutropenic ICR mice, n = 5) is > 2 log10 CFU and 2 log10 CFU. In addition, the “log10 CFU increase from the baseline at 168 h” value in data set [5] (total 2 mg/kg daily (0.29 mg/kg/day x 7), kidney burden, neutropenic ICR mice, n = 5) is > 1 log10 CFU and 1 log10 CFU. In addition, in data set [5] (total 2 mg/kg twice weekly (1 mg/kg x 2), kidney burden, neutropenic ICR mice, n = 5), the “net change in log10 CFU from the baseline at 168 h” value is “net fungal stasis”. Further, the “log10 CFU reduction from the baseline at 168 h” value in data set [5] (total 7 mg/kg i.p., regardless of the fractionation schedule) is “greater than 2 log10 CFU”. In data set [6], the “overt signs of toxicities” value is recorded as “No overt signs of toxicities”. The “free-drug AUC0-24 of single-dose regimen relative to daily regimen” value in data set [7] (2 mg/kg total dose) is listed as 7 fold. In addition, the “AUC0-168 of daily 1 mg/kg regimen relative to 2 mg/kg front-loaded regimen” value in data set [7] is listed as “approximately 3 fold”.
anidulafungin [reference compound]: the hepatocyte findings result in data set [1] was “hepatocellular necrosis ranging from mild to moderate”.
As to oritavancin [reference compound], the terminal half-life in data set [2] is recorded as ~245 h.
